Source: patent US12725802B2, “Aqueous rechargeable battery including organic positive active material” (Seoul National University R&DB Foundation, priority 2021, dated 2026)
Values after ≈ are worked out from the molar mass of the structure shown. Like-named read-outs stand apart in the source and are kept apart here.

Experiments:
[1] = Visual observation of the solubility of DMPZ in various solvents (color change, naked eye); format: physicochemical; settings: FIG. 3; for solubility: organic solvent or mixture, read-out: solubility (concentration dissolved)
From the text: DMPZ was respectively dissolved in various solvents, and color changes in the solutions were examined with the naked eye to evaluate dissolution degrees.

[2] = Analysis of solubility of positive active material in the electrolyte during cycle (electrode washed with new electrolyte, color; UV-visible spectroscopy); format: physicochemical; settings: FIG. 7
Experimental: Each cell of Comparative Example 1 and Examples 1 and 2 was checked regarding how much the positive active materials were dissolved when the electrodes were taken out during the charge and washed with a new electrolyte, and the results are shown in FIG. 7.
FIG. 8 is a graph quantitatively analyzing amounts of DMPZ dissolved in each electrolyte of Comparative Example 1 and Examples 1 and 2. The cycled DMPZ electrode was re-wetted in the electrolyte, and ultraviolet (UV)-visible ray spectroscopy was performed with respect to solutions in each of the DMPZ^+ and DMPZ^2+ states to measure areas of an absorption spectrum and thus obtain each amount of DMPZ^+ and DMPZ^2+ dissolved out in the electrolyte. In FIG. 8, a vertical axis indicates the DMPZ state according to SOC, while a horizontal axis indicates a weight change as solubility (%). In FIG. 8, Comparative Example 1 is shown on the right, Example 1 is in the middle, and Example 2 is on the left.

Structure (SMILES): CN1c2ccccc2N(C)c2ccccc21 [DMPZ, 5,10-dihydro-5,10-dimethylphenazine]
- solubility ([1]; dimethyl carbonate (DMC)): ≥ 100 mM
- solubility ([1]; propylene carbonate (PC)): ~20 mM (≈ 4.21 mg/mL)
- solubility ([1]; tetraethylene glycol dimethyl ether (TEGDME)): ≥ 100 mM
- solubility (dissolution) ([1]; water solvent): not dissolved in the water solvent at all
- solubility in the electrolyte during the cycles ([2]; Comparative Example 1 electrolyte: 1 M NaClO4 in TEGDME, DMPZ, DMPZ+ (SOC 50) and DMPZ2+ (SOC 100)): high solubility
- solubility in the electrolyte during the cycles ([2]; Example 1 electrolyte: 1 m NaClO4 and 0.5 m Zn(CF3SO3)2 in water, charged DMPZ (DMPZ+, DMPZ2+)): slightly dissolved
- solubility in the electrolyte during the cycles ([2]; Example 2 electrolyte: 17 m NaClO4 and 0.5 m Zn(CF3SO3)2 in water, DMPZ, DMPZ+ and DMPZ2+): not dissolved at all
